Common to all, as to type: biochemical
In one assay the target is T1, PgpB^Bs (Bacillus subtilis, UniProt O34349).
T1 construct: expressed in E. coli, purified, LDAO micelles; monomer; tag details not given
T1 sequence (O34349 1-203): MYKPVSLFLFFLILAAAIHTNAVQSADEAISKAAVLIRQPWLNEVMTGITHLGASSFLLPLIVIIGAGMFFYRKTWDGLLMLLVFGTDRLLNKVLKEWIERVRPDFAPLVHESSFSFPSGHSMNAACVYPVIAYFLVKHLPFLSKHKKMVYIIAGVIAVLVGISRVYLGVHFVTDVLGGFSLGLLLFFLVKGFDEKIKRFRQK
As to the kind of experiment: native mass spectrometry, real-time reaction monitoring.

The target in the next assay is T2, PgpB^Ec (Escherichia coli, UniProt P0A924).
T2 construct: expressed and purified from E. coli membranes, LDAO micelles; monomer; tag details not given (PgpB-his plasmid used in cells)
T2 sequence (P0A924 2-254): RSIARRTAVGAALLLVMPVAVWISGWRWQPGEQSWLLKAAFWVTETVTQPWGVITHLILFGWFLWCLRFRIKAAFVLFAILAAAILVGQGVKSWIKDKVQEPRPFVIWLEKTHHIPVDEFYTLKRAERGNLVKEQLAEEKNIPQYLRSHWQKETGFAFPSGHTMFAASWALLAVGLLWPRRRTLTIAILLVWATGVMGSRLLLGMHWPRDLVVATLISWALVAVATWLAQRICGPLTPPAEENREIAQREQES
Described as above.

The next assay has as its target T3, UppP (Escherichia coli, UniProt P60932).
T3 construct: expressed and purified from E. coli membranes, LDAO micelles, delipidated for activity
T3 sequence (P60932 1-273): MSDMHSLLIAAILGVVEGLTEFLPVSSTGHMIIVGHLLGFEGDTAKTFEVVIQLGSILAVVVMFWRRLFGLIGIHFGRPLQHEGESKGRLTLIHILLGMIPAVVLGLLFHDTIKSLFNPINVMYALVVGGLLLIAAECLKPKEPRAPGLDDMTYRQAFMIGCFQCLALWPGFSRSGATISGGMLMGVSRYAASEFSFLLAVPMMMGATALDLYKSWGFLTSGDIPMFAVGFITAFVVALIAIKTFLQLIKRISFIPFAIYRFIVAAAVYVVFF
Described as above.

The target in a further assay is T4, YbjG (Escherichia coli, UniProt P75806).
T4 construct: construct details only in supplement
T4 sequence (P75806 1-198): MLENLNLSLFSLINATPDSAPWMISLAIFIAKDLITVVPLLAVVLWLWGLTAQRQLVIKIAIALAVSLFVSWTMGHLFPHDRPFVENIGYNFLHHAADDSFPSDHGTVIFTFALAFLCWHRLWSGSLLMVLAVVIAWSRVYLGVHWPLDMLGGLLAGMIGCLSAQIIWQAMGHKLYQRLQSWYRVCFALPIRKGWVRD
Description: thin-layer chromatography phosphatase assay. The note with it: unaffected by EDTA or CaCl2.

The mark [1] stands for this setting: within 1 min, only enzyme-product complexes seen.

Turning to `CCCCCCCC/C=C\CCCCCCCC(=O)OC[C@@H](O)COP(=O)(O)O` [LPA], on PgpB^Bs (3.5 uM protein with 50 uM LPA, 5 uM with 20 uM (Figure 2C)), the “native mass spectrometry, real-time reaction monitoring” value (“native mass spectrometry” below) is “The resulting spectra exhibited a progressive loss of protein-bound LPA as a function of time”. For the compound `CCCCCCCC/C=C\CCCCCCCC(=O)OC[C@H](COP(=O)(O)OP(=O)(O)O)OC(=O)CCCCCCC/C=C\CCCCCCCC` [DGPP, 1,2-dioleoylglycerol diphosphate], the “native mass spectrometry” value at PgpB^Ec (3.5 uM protein, 10 uM DGPP, stoichiometries 1:1 to 1:4, activity independent of divalent cations) was “DGPP incubated with PgpB^Ec exhibited intense peaks corresponding to the enzyme–substrate and enzyme–product complexes”; at UppP (poorly processed substrate), “The resultant spectra are dominated by peaks assigned to the bound substrate”; at PgpB^Bs (setting [1]), “peaks assigned to enzyme–product complexes with no residual substrate”. As for `CC(C)=CCC/C(C)=C/CC/C(C)=C/CC/C(C)=C\CC/C(C)=C\CC/C(C)=C\CC/C(C)=C\CC/C(C)=C\CC/C(C)=C\CC/C(C)=C\CC/C(C)=C\COP(=O)(O)O` [C55-P], the “native mass spectrometry” value at UppP (product formed in situ from C55-PP) was “only the C55-P product was observed in complex with the protein”. Take `CCCCCCCC/C=C\CCCCCCCC(=O)OC[C@H](COP(=O)(O)O)OC(=O)CCCCCCC/C=C\CCCCCCCC` [DGP, 1,2-dioleoylglycerol monophosphate]: at PgpB^Ec (product formed in situ from DGPP, ternary complex with DGPP), the “native mass spectrometry” value is “ternary complex formed by PgpB^Ec with the substrate DGPP and the monophosphorylated product DGP”. `CC(C)=CCC/C(C)=C/CC/C(C)=C/CC/C(C)=C/CC/C(C)=C/CC/C(C)=C/CC/C(C)=C/CC/C(C)=C/CC/C(C)=C/CC/C(C)=C/CC/C(C)=C/COP(=O)(O)OP(=O)(O)O` [C55-PP]: the “thin-layer chromatography phosphatase assay” value on YbjG is reported as “the activity of YbjG against C55-PP is unaffected by EDTA or CaCl2”. In addition, the “native mass spectrometry” value on PgpB^Ec (3.5 uM protein, 10 uM C55-PP, slowly processed) was “we observe intense binding of C55-PP molecules to the enzyme”; at PgpB^Bs (setting [1]), “We next examined the activity of PgpB of B. subtilis (PgpB^Bs) toward DGPP and C55-PP”. On to `CC(C)=CCC/C(C)=C/CC/C(C)=C/COP(=O)(O)OP(=O)(O)O` [C15-PP], for which the “native mass spectrometry” value at UppP (3.5 uM delipidated protein, 50 uM C15-PP) was “peaks corresponding to ligand-free UppP and multiple enzyme–substrate complexes (UppP)(C15-PP)n”.

(Values after article PMC10941186, “Real-Time Biosynthetic Reaction Monitoring Informs the Mechanism of Action of Antibiotics” (Journal of the American Chemical Society, 2024).)
